Reference: ChEMBL document CHEMBL1201861, “Genomics of Drug Sensitity in Cancer screening data, Wellcome Trust Sanger Institute”

Key:
NCI-H1993 = assay: cells; type: functional, cell-based, Homo sapiens; conditions: Homo sapiens, NCI-H1993
Description: SANGER: Inhibition of human NCI-H1993 cell growth in a cell viability assay.

NCI-H2405 = assay: cells; type: functional, cell-based, Homo sapiens; conditions: Homo sapiens, NCI-H2405
Description: SANGER: Inhibition of human NCI-H2405 cell growth in a cell viability assay.

T-24 = assay: cells; type: functional, cell-based, Homo sapiens; conditions: Homo sapiens, T-24
Description: SANGER: Inhibition of human T-24 cell growth in a cell viability assay.

23132-87 = assay: cells; type: functional, cell-based, Homo sapiens; conditions: Homo sapiens
Description: SANGER: Inhibition of human 23132-87 cell growth in a cell viability assay.

HT55 = assay: cells; type: functional, cell-based, Homo sapiens; conditions: Homo sapiens, HT55
Description: SANGER: Inhibition of human HT55 cell growth in a cell viability assay.

RD = assay: cells; type: functional, cell-based, Homo sapiens; conditions: Homo sapiens, RD
Description: SANGER: Inhibition of human RD cell growth in a cell viability assay.

P31-FUJ = assay: cells; type: functional, cell-based; conditions: Homo sapiens
Description: SANGER: Inhibition of human P31-FUJ cell growth in a cell viability assay.

RL95-2 = assay: cells; type: functional, cell-based; conditions: Homo sapiens
Description: SANGER: Inhibition of human RL95-2 cell growth in a cell viability assay.

BL-70 = assay: SANGER: Inhibition of human BL-70 cell growth in a cell viability assay.; type: functional, cell-based
NCI-H716 = assay: cells; type: functional, cell-based; conditions: Homo sapiens
Description: SANGER: Inhibition of human NCI-H716 cell growth in a cell viability assay.

JVM-3 = assay: cells; type: functional, cell-based; conditions: Homo sapiens
Description: SANGER: Inhibition of human JVM-3 cell growth in a cell viability assay.

BC-3 = assay: cells; type: functional, cell-based; conditions: Homo sapiens
Description: SANGER: Inhibition of human BC-3 cell growth in a cell viability assay.

A3-KAW = assay: cells; type: functional, cell-based; conditions: Homo sapiens
Description: SANGER: Inhibition of human A3-KAW cell growth in a cell viability assay.

SUP-T1 = assay: cells; type: functional, cell-based; conditions: Homo sapiens
Description: SANGER: Inhibition of human SUP-T1 cell growth in a cell viability assay.

NCI-H1436 = assay: cells; type: functional, cell-based; conditions: Homo sapiens
Description: SANGER: Inhibition of human NCI-H1436 cell growth in a cell viability assay.

HSC-4 = assay: cells; type: functional, cell-based, Homo sapiens; conditions: Homo sapiens, HSC-4
Description: SANGER: Inhibition of human HSC-4 cell growth in a cell viability assay.

LXF-289 cell line = assay: cells; type: functional, cell-based, Homo sapiens; conditions: Homo sapiens, LXF-289
Description: SANGER: Inhibition of human LXF-289 cell growth in a cell viability assay.

NCI-H1963 = assay: cells; type: functional, cell-based; conditions: Homo sapiens
Description: SANGER: Inhibition of human NCI-H1963 cell growth in a cell viability assay.

KARPAS-422 = assay: cells; type: functional, cell-based; conditions: Homo sapiens
Description: SANGER: Inhibition of human KARPAS-422 cell growth in a cell viability assay.

COR-L279 = assay: SANGER: Inhibition of human COR-L279 cell growth in a cell viability assay.; type: functional, cell-based
HuO9 = assay: cells; type: functional, cell-based, Homo sapiens; conditions: Homo sapiens, HuO9
Description: SANGER: Inhibition of human HuO9 cell growth in a cell viability assay.

NCI-H889 = assay: cells; type: functional, cell-based; conditions: Homo sapiens
Description: SANGER: Inhibition of human NCI-H889 cell growth in a cell viability assay.

TE-9 = assay: cells; type: functional, cell-based, Homo sapiens; conditions: Homo sapiens, TE-9
Description: SANGER: Inhibition of human TE-9 cell growth in a cell viability assay.

SF-539 = assay: cells; type: functional, cell-based, Homo sapiens; conditions: Homo sapiens, SF-539
Description: SANGER: Inhibition of human SF539 cell growth in a cell viability assay.

IGR-1 = assay: cells; type: functional, cell-based, Homo sapiens; conditions: Homo sapiens, IGR-1
Description: SANGER: Inhibition of human IGR-1 cell growth in a cell viability assay.

LC4-1 = assay: cells; type: functional, cell-based; conditions: Homo sapiens
Description: SANGER: Inhibition of human LC4-1 cell growth in a cell viability assay.

LAMA-84 = assay: cells; type: functional, cell-based; conditions: Homo sapiens
Description: SANGER: Inhibition of human LAMA-84 cell growth in a cell viability assay.

U-698-M = assay: cells; type: functional, cell-based; conditions: Homo sapiens
Description: SANGER: Inhibition of human U-698-M cell growth in a cell viability assay.

OPM-2 = assay: cells; type: functional, cell-based; conditions: Homo sapiens
Description: SANGER: Inhibition of human OPM-2 cell growth in a cell viability assay.

NCI-H2196 = assay: cells; type: functional, cell-based; conditions: Homo sapiens
Description: SANGER: Inhibition of human NCI-H2196 cell growth in a cell viability assay.

SIMA = assay: cells; type: functional, cell-based, Homo sapiens; conditions: Homo sapiens, SIMA
Description: SANGER: Inhibition of human SIMA cell growth in a cell viability assay.

CP66-MEL = assay: cells; type: functional, cell-based, Homo sapiens; conditions: Homo sapiens, CP66-MEL
Description: SANGER: Inhibition of human CP66-MEL cell growth in a cell viability assay.

CAL-12T = assay: cells; type: functional, cell-based, Homo sapiens; conditions: Homo sapiens, CAL-12T
Description: SANGER: Inhibition of human CAL-12T cell growth in a cell viability assay.

TALL-1 = assay: cells; type: functional, cell-based; conditions: Homo sapiens
Description: SANGER: Inhibition of human TALL-1 cell growth in a cell viability assay.

YT = assay: cells; type: functional, cell-based; conditions: Homo sapiens
Description: SANGER: Inhibition of human YT cell growth in a cell viability assay.

ASPC1 = assay: cells; type: functional, cell-based, Homo sapiens; conditions: Homo sapiens, ASPC1
Description: SANGER: Inhibition of human AsPC-1 cell growth in a cell viability assay.

UACC-812 = assay: cells; type: functional, cell-based; conditions: Homo sapiens
Description: SANGER: Inhibition of human UACC-812 cell growth in a cell viability assay.

L-540 = assay: cells; type: functional, cell-based; conditions: Homo sapiens
Description: SANGER: Inhibition of human L-540 cell growth in a cell viability assay.

NCI-H1092 = assay: cells; type: functional, cell-based; conditions: Homo sapiens
Description: SANGER: Inhibition of human NCI-H1092 cell growth in a cell viability assay.

G-401 = assay: cells; type: functional, cell-based, Homo sapiens; conditions: Homo sapiens, G-401
Description: SANGER: Inhibition of human G-401 cell growth in a cell viability assay.

RL = assay: cells; type: functional, cell-based; conditions: Homo sapiens
Description: SANGER: Inhibition of human RL cell growth in a cell viability assay.

BL-41 = assay: cells; type: functional, cell-based; conditions: Homo sapiens
Description: SANGER: Inhibition of human BL-41 cell growth in a cell viability assay.

CPC-N = assay: cells; type: functional, cell-based; conditions: Homo sapiens
Description: SANGER: Inhibition of human CPC-N cell growth in a cell viability assay.

C2BBe1 = assay: cells; type: functional, cell-based, Homo sapiens; conditions: Homo sapiens, C2BBe1
Description: SANGER: Inhibition of human C2BBe1 cell growth in a cell viability assay.

MONO-MAC-6 = assay: cells; type: functional, cell-based; conditions: Homo sapiens
Description: SANGER: Inhibition of human MONO-MAC-6 cell growth in a cell viability assay.

GDM-1 = assay: cells; type: functional, cell-based; conditions: Homo sapiens
Description: SANGER: Inhibition of human GDM-1 cell growth in a cell viability assay.

HCC 2998 = assay: cells; type: functional, cell-based, Homo sapiens; conditions: Homo sapiens, HCC 2998
Description: SANGER: Inhibition of human HCC2998 cell growth in a cell viability assay.

TE-441-T = assay: cells; type: functional, cell-based; conditions: Homo sapiens
Description: SANGER: Inhibition of human TE-441-T cell growth in a cell viability assay.

U-87 MG = assay: cells; type: functional, cell-based, U-87MG ATCC; conditions: Homo sapiens
Description: SANGER: Inhibition of human U-87-MG cell growth in a cell viability assay.

LU-165 = assay: cells; type: functional, cell-based; conditions: Homo sapiens
Description: SANGER: Inhibition of human LU-165 cell growth in a cell viability assay.

LB831-BLC = assay: cells; type: functional, cell-based, Homo sapiens; conditions: Homo sapiens, LB831-BLC
Description: SANGER: Inhibition of human LB831-BLC cell growth in a cell viability assay.

## COC(=O)CNC(=O)C(=O)OC
NCI-H1993
  IC50: 331 µM
NCI-H2405
  IC50: 261 µM
T-24
  IC50: > 4000 µM
23132-87
  IC50: > 4000 µM
HT55
  IC50: 554 µM
RD
  IC50: 692 µM
P31-FUJ
  IC50: > 4000 µM
RL95-2
  IC50: 3590 µM
BL-70
  IC50: 15.9 µM
NCI-H716
  IC50: 1740 µM
JVM-3
  IC50: > 4000 µM
BC-3
  IC50: 305 µM
A3-KAW
  IC50: 15.8 µM
SUP-T1
  IC50: 143 µM
NCI-H1436
  IC50: > 4000 µM
HSC-4
  IC50: 414 µM
LXF-289 cell line
  IC50: 260 µM
NCI-H1963
  IC50: 1030 µM
KARPAS-422
  IC50: 162 µM
COR-L279
  IC50: > 4000 µM
HuO9
  IC50: 589 µM
NCI-H889
  IC50: > 4000 µM
TE-9
  IC50: 951 µM
SF-539
  IC50: 310 µM
IGR-1
  IC50: 1650 µM
LC4-1
  IC50: 99.8 µM
LAMA-84
  IC50: 2110 µM
U-698-M
  IC50: 13.3 µM
OPM-2
  IC50: 28.8 µM
NCI-H2196
  IC50: 2960 µM
SIMA
  IC50: 846 µM
CP66-MEL
  IC50: 445 µM
CAL-12T
  IC50: 26.6 µM
TALL-1
  IC50: > 4000 µM
YT
  IC50: 23.4 µM
ASPC1
  IC50: 3920 µM
UACC-812
  IC50: 3010 µM
L-540
  IC50: 239 µM
NCI-H1092
  IC50: 1200 µM
G-401
  IC50: 1460 µM
RL
  IC50: 601 µM
BL-41
  IC50: 54.9 µM
CPC-N
  IC50: > 4000 µM
C2BBe1
  IC50: 1730 µM
MONO-MAC-6
  IC50: 202 µM
GDM-1
  IC50: 121 µM
HCC 2998
  IC50: 3160 µM
TE-441-T
  IC50: 1870 µM
U-87 MG
  IC50: 147 µM
LU-165
  IC50: 804 µM
LB831-BLC
  IC50: 911 µM

## CN(c1ncccc1CNc1nc(Nc2ccc3c(c2)CC(=O)N3)ncc1C(F)(F)F)S(C)(=O)=O [PF-00562271]
NCI-H1993
  IC50: > 2.56 µM
NCI-H2405
  IC50: > 2.56 µM
T-24
  IC50: > 2.56 µM
23132-87
  IC50: > 2.56 µM
HT55
  IC50: > 2.56 µM
RD
  IC50: > 2.56 µM
P31-FUJ
  IC50: > 2.56 µM
RL95-2
  IC50: > 2.56 µM
BL-70
  IC50: > 2.56 µM
NCI-H716
  IC50: > 2.56 µM
JVM-3
  IC50: > 2.56 µM
BC-3
  IC50: > 2.56 µM
A3-KAW
  IC50: > 2.56 µM
SUP-T1
  IC50: > 2.56 µM
NCI-H1436
  IC50: > 2.56 µM
HSC-4
  IC50: > 2.56 µM
LXF-289 cell line
  IC50: > 2.56 µM
NCI-H1963
  IC50: > 2.56 µM
KARPAS-422
  IC50: > 2.56 µM
COR-L279
  IC50: > 2.56 µM
HuO9
  IC50: > 2.56 µM
NCI-H889
  IC50: > 2.56 µM
TE-9
  IC50: > 2.56 µM
SF-539
  IC50: > 2.56 µM
IGR-1
  IC50: > 2.56 µM
LC4-1
  IC50: > 2.56 µM
LAMA-84
  IC50: > 2.56 µM
U-698-M
  IC50: > 2.56 µM
OPM-2
  IC50: > 2.56 µM
NCI-H2196
  IC50: > 2.56 µM
SIMA
  IC50: > 2.56 µM
CP66-MEL
  IC50: > 2.56 µM
CAL-12T
  IC50: > 2.56 µM
TALL-1
  IC50: > 2.56 µM
YT
  IC50: > 2.56 µM
ASPC1
  IC50: > 2.56 µM
UACC-812
  IC50: > 2.56 µM
L-540
  IC50: > 2.56 µM
NCI-H1092
  IC50: > 2.56 µM
G-401
  IC50: > 2.56 µM
RL
  IC50: > 2.56 µM
BL-41
  IC50: > 2.56 µM
CPC-N
  IC50: > 2.56 µM
C2BBe1
  IC50: > 2.56 µM
MONO-MAC-6
  IC50: 2.41 µM
GDM-1
  IC50: > 2.56 µM
HCC 2998
  IC50: > 2.56 µM
TE-441-T
  IC50: > 2.56 µM
U-87 MG
  IC50: > 2.56 µM
LU-165
  IC50: > 2.56 µM
LB831-BLC
  IC50: 2.01 µM

## C=C1C(=O)O[C@@H]2C3O[C@]3(C)CC/C=C(\C)CC[C@@H]12 (stereo not given in full)
P31-FUJ
  IC50: > 5 µM
RL95-2
  IC50: > 5 µM
BL-70
  IC50: > 5 µM
NCI-H716
  IC50: > 5 µM
JVM-3
  IC50: > 5 µM
BC-3
  IC50: > 5 µM
A3-KAW
  IC50: 2.29 µM
SUP-T1
  IC50: > 5 µM
NCI-H1436
  IC50: > 5 µM
LXF-289 cell line
  IC50: > 5 µM
NCI-H1963
  IC50: > 5 µM
KARPAS-422
  IC50: > 5 µM
COR-L279
  IC50: > 5 µM
NCI-H889
  IC50: > 5 µM
TE-9
  IC50: > 5 µM
SF-539
  IC50: 2.47 µM
LC4-1
  IC50: > 5 µM
LAMA-84
  IC50: > 5 µM
U-698-M
  IC50: > 5 µM
OPM-2
  IC50: > 5 µM
NCI-H2196
  IC50: 0.645 µM
SIMA
  IC50: > 5 µM
CP66-MEL
  IC50: > 5 µM
TALL-1
  IC50: > 5 µM
YT
  IC50: > 5 µM
UACC-812
  IC50: > 5 µM
L-540
  IC50: > 5 µM
NCI-H1092
  IC50: > 5 µM
RL
  IC50: > 5 µM
BL-41
  IC50: > 5 µM
CPC-N
  IC50: > 5 µM
C2BBe1
  IC50: > 5 µM
MONO-MAC-6
  IC50: > 5 µM
GDM-1
  IC50: > 5 µM
HCC 2998
  IC50: > 5 µM
TE-441-T
  IC50: > 5 µM
U-87 MG
  IC50: > 5 µM
LU-165
  IC50: > 5 µM
LB831-BLC
  IC50: > 5 µM

## CCc1nc(N)nc(N)c1-c1ccc(Cl)cc1 [PYRIMETHAMINE]
P31-FUJ
  IC50: > 20 µM
RL95-2
  IC50: 15.7 µM
BL-70
  IC50: 14.6 µM
NCI-H716
  IC50: > 20 µM
JVM-3
  IC50: > 20 µM
BC-3
  IC50: 19.5 µM
A3-KAW
  IC50: 9.44 µM
SUP-T1
  IC50: > 20 µM
NCI-H1436
  IC50: > 20 µM
LXF-289 cell line
  IC50: > 20 µM
NCI-H1963
  IC50: > 20 µM
KARPAS-422
  IC50: 18.2 µM
COR-L279
  IC50: 6.37 µM
NCI-H889
  IC50: > 20 µM
TE-9
  IC50: > 20 µM
SF-539
  IC50: 2.55 µM
LC4-1
  IC50: > 20 µM
LAMA-84
  IC50: 2.66 µM
U-698-M
  IC50: > 20 µM
OPM-2
  IC50: > 20 µM
NCI-H2196
  IC50: > 20 µM
SIMA
  IC50: > 20 µM
CP66-MEL
  IC50: > 20 µM
TALL-1
  IC50: > 20 µM
YT
  IC50: > 20 µM
UACC-812
  IC50: > 20 µM
L-540
  IC50: 10.5 µM
NCI-H1092
  IC50: > 20 µM
RL
  IC50: > 20 µM
BL-41
  IC50: > 20 µM
CPC-N
  IC50: > 20 µM
C2BBe1
  IC50: > 20 µM
MONO-MAC-6
  IC50: 16.3 µM
GDM-1
  IC50: > 20 µM
HCC 2998
  IC50: 5.78 µM
TE-441-T
  IC50: > 20 µM
U-87 MG
  IC50: > 20 µM
LU-165
  IC50: > 20 µM
LB831-BLC
  IC50: > 20 µM
